{
  "source": "patent US6610846B1",
  "about": "“Heteroaromatic glucokinase activators” (Hoffman-La Roche Inc., priority 1999, dated 2003)",
  "data": [
    {"units": {"melting point": "°C"}, "values": [
      {"compound": "CS(=O)(=O)c1ccc(C(CC2CCCC2)C(=O)Nc2ccccn2)cc1S(C)(=O)=O", "note": "(stereo not drawn)", "melting point": "107 to 110"},
      {"compound": "O=C(Nc1nccs1)C(CC1CCCC1)c1ccc(Br)cc1", "note": "(stereo not drawn) [Example 2, 2-(4-Bromo-phenyl)-3-cyclopentyl-N-thiazol-2-yl-propionamide]", "melting point": "201 to 202"},
      {"compound": "Nc1ccc(C(CC2CCCC2)C(=O)Nc2nccs2)cc1", "note": "(stereo not drawn) [Example 4, 2-(4-Amino-phenyl)-3-cyclopentyl-N-thiazol-2-yl-propionamide]", "melting point": "102 to 107"},
      {"compound": "Nc1cccc(C(CC2CCCC2)C(=O)Nc2nccs2)c1", "note": "(stereo not drawn) [Example 5, 2-(3-Amino-phenyl)-3-cyclopentyl-N-thiazol-2-yl-propionamide]", "melting point": "158 to 160"},
      {"compound": "O=C(Nc1nccs1)C(CC1CCCC1)c1cccc(Cl)c1", "note": "(stereo not drawn) [Example 6, 2-(3-Chloro-phenyl)-3-cyclopentyl-N-thiazol-2-yl-propionamide]", "melting point": "138.8 to 141.2"},
      {"compound": "O=C(Nc1nccs1)C(CC1CCCC1)c1ccc(C(F)(F)F)cc1", "note": "(stereo not drawn) [Example 8, 3-Cyclopentyl-N-thiazol-2-yl-2-(4-trifluoromethyl-phenyl)-propionamide]", "melting point": "210 to 212"},
      {"compound": "CSc1ccc(C(CC2CCCC2)C(=O)Nc2nccs2)cc1", "note": "(stereo not drawn) [Example 9, 3-Cyclopentyl-2-(4-methylsulfanyl-phenyl)-N-thiazol-2-yl-propionamide]", "melting point": "195 to 196"},
      {"compound": "O=C(Nc1nccs1)C(CC1CCCC1)c1ccc(SC(F)(F)F)cc1", "note": "(stereo not drawn) [Example 10, 3-Cyclopentyl-N-thiazol-2-yl-2-(4-trifluoromethylsulfanyl-phenyl)-propionamide]", "melting point": "58 to 60"},
      {"compound": "CS(=O)(=O)c1ccc(C(CC2CCCC2)C(=O)Nc2nccs2)cc1[N+](=O)[O-]", "note": "(stereo not drawn) [Example 14, 3-Cyclopentyl-2-(4-methanesulfonyl-3-nitrophenyl)-N-thiazol-2-yl-propionamide]", "melting point": "121 to 124"},
      {"compound": "O=C(Nc1ncc(CO)s1)C(CC1CCCC1)c1ccc(Cl)c(Cl)c1", "note": "(stereo not drawn) [Example 15, 3-Cyclopentyl-2-(3,4-dichlorophenyl)-N-(5-hydroxymethyl-thiazol-2-yl)-propionamide]", "melting point": "128 to 130"},
      {"compound": "O=C(Nc1nc(CCO)cs1)C(CC1CCCC1)c1ccc(Cl)c(Cl)c1", "note": "(stereo not drawn) [Example 16, 3-Cyclopentyl-2-(3,4-dichlorophenyl)-N-[4-(2-hydroxyethyl)-thiazol-2-yl]-propionamide]", "melting point": "85 to 86"},
      {"compound": "O=C(Nc1nc(CO)cs1)C(CC1CCCC1)c1ccc(Cl)c(Cl)c1", "note": "(stereo not drawn) [Example 17, 3-Cyclopentyl-2-(3,4-dichlorophenyl)-N-(4-hydroxymethyl-thiazol-2-yl)-propionamide]", "melting point": "88 to 90"},
      {"compound": "O=C(O)Cc1csc(NC(=O)C(CC2CCCC2)c2ccc(Cl)c(Cl)c2)n1", "note": "(stereo not drawn) [Example 18, {2-[3-Cyclopentyl-2-(3,4-dichlorophenyl)-propionylamino]-thiazol-4-yl}-acetic acid]", "melting point": "100 to 102"},
      {"compound": "O=C(O)c1cnc(NC(=O)C(CC2CCCC2)c2ccc(Cl)c(Cl)c2)s1", "note": "(stereo not drawn) [Example 19, 2-[3-Cyclopentyl-2-(3,4-dichlorophenyl)-propionylamino]-thiazole-5-carboxylic acid]", "melting point": "269 to 270"},
      {"compound": "O=C(Nc1nccs1)C(CC1CCCC1)c1ccc([N+](=O)[O-])cc1", "note": "(stereo not drawn) [Example 22(A), 3-Cyclopentyl-2-(4-nitro-phenyl)-N-thiazol-2-yl-propionamide]", "melting point": "186 to 187"},
      {"compound": "COC(=O)c1csc(NC(=O)C(CC2CCCC2)c2cccc(Cl)c2)n1", "note": "(stereo not drawn) [Example 30, 2-[2-(3-Chloro-phenyl)-3-cyclopentyl-propionylamino]-thiazole-4-carboxylic acid methyl ester]", "melting point": "95 to 98"},
      {"compound": "COC(=O)c1csc(NC(=O)C(CC2CCCC2)c2ccc(Cl)cc2)n1", "note": "(stereo not drawn) [Example 32, 2-[2-(4-Chloro-phenyl)-3-cyclopentyl-propionylamino]-thiazole-4-carboxylic acid methyl ester]", "melting point": "156 to 157"},
      {"compound": "CS(=O)(=O)c1ccc(C(CC2CCCC2)C(=O)Nc2nc(CO)cs2)cc1", "note": "(stereo not drawn) [Example 35, 3-Cyclopentyl-N-(4-hydroxymethyl-thiazol-2-yl)-2-(4-methanesulfonyl-phenyl)-propionamide]", "melting point": "124 to 126"},
      {"compound": "CS(=O)(=O)c1ccc(C(CC2CCCC2)C(=O)Nc2nc(CCO)cs2)cc1", "note": "(stereo not drawn) [Example 36, 3-Cyclopentyl-N-[4-(2-hydroxyethyl)-thiazol-2-yl]-2-(4-methanesulfonyl-phenyl)-propionamide]", "melting point": "84 to 87"},
      {"compound": "O=C(Nc1ccccn1)C(CC1CCCC1)c1ccc([N+](=O)[O-])cc1", "note": "(stereo not drawn) [Example 39(A), 3-Cyclopentyl-2-(4-nitro-phenyl)-N-pyridin-2-yl-propionamide]", "melting point": "152 to 154"},
      {"compound": "CSc1ccc(C(CC2CCCC2)C(=O)Nc2ccccn2)cc1", "note": "(stereo not drawn) [Example 40, 3-Cyclopentyl-2-(4-methylsulfanyl-phenyl)-N-pyridin-2-yl-propionamide]", "melting point": "127 to 128"},
      {"compound": "O=C(Nc1ccccn1)C(CC1CCCC1)c1ccc(SC(F)(F)F)cc1", "note": "(stereo not drawn) [Example 41, 3-Cyclopentyl-N-pyridin-2-yl-2-(4-trifluoromethylsulfanyl-phenyl)-propionamide]", "melting point": "101 to 102"},
      {"compound": "CS(=O)(=O)c1ccc(C(CC2CCCC2)C(=O)Nc2ccccn2)cc1", "note": "(stereo not drawn) [Example 42, 3-Cyclopentyl-2-(4-methanesulfonyl-phenyl)-N-pyridin-2-yl-propionamide]", "melting point": "172 to 173"},
      {"compound": "O=C(O)c1ccc(NC(=O)C(CC2CCCC2)c2ccc(Cl)cc2)nc1", "note": "(stereo not drawn) [Example 47, 6-[2-(4-Chloro-phenyl)-3-cyclopentyl-propionylamino]-nicotinic acid]", "melting point": "206 to 208"},
      {"compound": "CS(=O)(=O)c1ccc(C(CC2CCCC2)C(=O)Nc2ccc(C(=O)O)cn2)cc1", "note": "(stereo not drawn) [Example 48, 6-[3-Cyclopentyl-2-(4-methanesulfonyl-phenyl)-propionylamino]-nicotinic acid]", "melting point": "191 to 193"},
      {"compound": "O=C(Nc1ccc(CO)cn1)C(CC1CCCC1)c1ccc(Cl)cc1", "note": "(stereo not drawn) [Example 50, 2-(4-Chloro-phenyl)-3-cyclopentyl-N-(5-hydroxymethyl-pyridin-2-yl)-propionamide]", "melting point": "60 to 62"},
      {"compound": "O=C(Nc1ccc(O)cn1)C(CC1CCCC1)c1ccc(Cl)c(Cl)c1", "note": "(stereo not drawn) [Example 51, 3-Cyclopentyl-2-(3,4-dichloro-phenyl)-N-(5-hydroxy-pyridin-2-yl)-propionamide]", "melting point": "79 to 81"},
      {"compound": "CS(=O)(=O)c1ccc(C(CC2CCCC2)C(=O)Nc2ccc(CO)cn2)cc1", "note": "(stereo not drawn) [Example 52, 3-Cyclopentyl-N-(5-hydroxymethyl-pyridin-2-yl)-2-(4-methanesulfonyl-phenyl)-propionamide]", "melting point": "74 to 77"},
      {"compound": "Cc1ccc(NC(=O)C(CC2CCCC2)c2ccc(S(C)(=O)=O)cc2)nc1", "note": "(stereo not drawn) [Example 53(A), 3-Cyclopentyl-2-(4-methanesulfonyl-phenyl)-N-(5-methyl-pyridin-2-yl)-propionamide]", "melting point": "184 to 185"},
      {"compound": "O=C(Nc1ncc[nH]1)C(CC1CCCC1)c1ccc(Cl)c(Cl)c1", "note": "(stereo not drawn) [Example 55, 3-Cyclopentyl-2-(3,4-dichlorophenyl)-N-(1H-imidazol-2-yl)-propionamide]", "melting point": "58 to 60"},
      {"compound": "Cc1cc(NC(=O)C(CC2CCCC2)c2ccc(Cl)c(Cl)c2)no1", "note": "(stereo not drawn) [Example 56, 3-Cyclopentyl-2-(3,4-dichlorophenyl)-N-(5-methyl-isoxazol-3-yl)-propionamide]", "melting point": "84 to 86"},
      {"compound": "O=C(Nc1ncco1)C(CC1CCCC1)c1ccc(Cl)c(Cl)c1", "note": "(stereo not drawn) [Example 57, 3-Cyclopentyl-2-(3,4-dichlorophenyl)-N-oxazol-2-yl-propionamide]", "melting point": "134 to 136"},
      {"compound": "O=C(Nc1cccnn1)C(CC1CCCC1)c1ccc(Cl)c(Cl)c1", "note": "(stereo not drawn) [Example 58, 3-Cyclopentyl-2-(3,4-dichlorophenyl)-N-pyridazin-3-yl-propionamide]", "melting point": "70 to 71"},
      {"compound": "O=C(Nc1ncccn1)C(CC1CCCC1)c1ccc(Cl)c(Cl)c1", "note": "(stereo not drawn) [Example 59, 3-Cyclopentyl-2-(3,4-dichlorophenyl)-N-pyrimidin-2-yl-propionamide]", "melting point": "103 to 105"},
      {"compound": "O=C(Nc1ccncn1)[C@H](CC1CCCC1)c1ccc(Cl)c(Cl)c1", "note": "[Example 60, 3-Cyclopentyl-2(R)-(3,4-dichloro-phenyl)-N-pyrimidine-4-yl-propionamide]", "melting point": "166.5 to 169.3"},
      {"compound": "C[S+]([O-])c1ccc(C(CC2CCCC2)C(=O)Nc2nccs2)cc1", "note": "(stereo not drawn) [Example 61, 3-Cyclopentyl-2-(4-methanesulfinyl-phenyl)-N-thiazol-2-yl-propionamide]", "melting point": "170 to 173"},
      {"compound": "CCOC(=O)Cc1csc(NC(=O)C(CC2CCCC2)c2ccc(S(=O)(=O)C(F)(F)F)cc2)n1", "note": "(stereo not drawn) [Example 62, {2-[3-Cyclopentyl-2-(4-trifluoromethanesulfonyl-phenyl)-propionylamino]-thiazol-4-yl}-acetic acid ethyl ester]", "melting point": "48 to 51"},
      {"compound": "O=C(Nc1ccc(Br)cn1)C(CC1CCCC1)c1ccc(S(=O)(=O)C(F)(F)F)cc1", "note": "(stereo not drawn) [Example 63, N-(5-Bromo-pyridin-2-yl)-3-cyclopentyl-2-(4-trifluoromethanesulfonyl-phenyl)-propionamide]", "melting point": "130 to 132"},
      {"compound": "O=C(Nc1nccs1)C(CC1CCCC1)c1ccc(Cl)c([N+](=O)[O-])c1", "note": "(stereo not drawn) [Example 64, 2-(4-Chloro-3-nitro-phenyl)-3-cyclopentyl-N-thiazol-2-yl-propionamide]", "melting point": "68 to 72"},
      {"compound": "CS(=O)(=O)c1ccc(C(CC2CCCC2)C(=O)Nc2ccc(Br)cn2)cc1[N+](=O)[O-]", "note": "(stereo not drawn) [Example 66, N-(5-Bromo-pyridin-2-yl)-3-cyclopentyl-2-(4-methanesulfonyl-3-nitro-phenyl)-propionamide]", "melting point": "80 to 83"},
      {"compound": "CS(=O)(=O)c1ccc(C(CC2CCCC2)C(=O)Nc2nccs2)cc1NO", "note": "(stereo not drawn) [Example 67, 3-Cyclopentyl-2-(3-hydroxyamino-4-methanesulfonyl-phenyl)-N-thiazol-2-yl-propionamide]", "melting point": "124 to 126"},
      {"compound": "CS(=O)(=O)c1ccc(C(CC2CCCC2)C(=O)Nc2nccs2)cc1N", "note": "(stereo not drawn) [Example 68, 2-(3-Amino-4-methanesulfonyl-phenyl)-3-cyclopentyl-N-thiazol-2-yl-propionamide]", "melting point": "207 to 209"}
    ]}
  ]
}
